Patent US20180312493A1, “Antibiotic Compounds, Pharmaceutical Formulations Thereof And Methods And Uses Therefor” (Simon Fraser University, priority 2015, published 2018)
pIC50: −log10 of the molar value. Converted amounts (≈) assume the structure as drawn.

Key:
MRSA Pyk = biological target: T1, MRSA Pyk (Staphylococcus aureus, UniProt Q6GG09); assay: MRSA pyruvate kinase (PK) activity, continuous LDH-coupled assay; format: biochemical, methicillin resistant S. aureus (MRSA252)
T1 construct: made in house; host or cells: E. coli BL-21 (DE3)
T1 sequence (Q6GG09 whole entry): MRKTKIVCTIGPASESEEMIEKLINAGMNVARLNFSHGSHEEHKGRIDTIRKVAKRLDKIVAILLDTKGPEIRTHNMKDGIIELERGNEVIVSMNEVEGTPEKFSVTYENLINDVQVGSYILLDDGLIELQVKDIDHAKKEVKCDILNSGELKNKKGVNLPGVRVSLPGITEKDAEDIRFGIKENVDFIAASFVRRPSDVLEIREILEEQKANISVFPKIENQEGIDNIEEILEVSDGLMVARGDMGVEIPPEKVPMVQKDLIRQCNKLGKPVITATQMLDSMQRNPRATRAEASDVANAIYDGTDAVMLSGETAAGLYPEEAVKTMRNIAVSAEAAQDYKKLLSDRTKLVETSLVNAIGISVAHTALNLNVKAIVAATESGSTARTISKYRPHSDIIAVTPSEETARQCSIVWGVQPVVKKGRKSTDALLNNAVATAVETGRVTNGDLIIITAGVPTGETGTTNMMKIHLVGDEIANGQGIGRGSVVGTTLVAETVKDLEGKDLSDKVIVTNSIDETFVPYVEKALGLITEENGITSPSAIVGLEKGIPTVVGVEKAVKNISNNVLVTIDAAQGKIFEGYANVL
In short: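 Activity monitored continuously as absorbance change at 340 nm from NADH oxidation via coupled lactate dehydrogenase, reactions started with 15 nM recombinant His-tagged PK (MRSA or human isoform) and run at 30° C for up to 5 min. Ki derived by varying inhibitor (0-400 nM) and PEP (2-20 mM) at 2 mM ADP; IC50 by four-parameter fitting.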

S. aureus (ATCC29213) = assay: In vitro susceptibility, broth microdilution (MIC); format: cell-based; details: Staphylococcus aureus; S. aureus ATCC29213; 18-24 h, 37 C; read-out: Antimicrobial activity (MIC) S. aureus ATCC29213
In short: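 CLSI 2-fold serial broth microdilution; K. pneumoniae C238 grown in L-broth, S. aureus ATCC 29213 in Mueller Hinton broth, plates incubated 18–24 h at 37 °C. MIC taken as lowest concentration giving complete growth inhibition by OD600 versus compound-free wells, background-subtracted.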

VRE#2 (2010A) = assay: In vitro susceptibility, broth microdilution (MIC); format: cell-based, vancomycin resistant Enterococci; details: VRE#2 (2010A); read-out: Antimicrobial activity (MIC) VRE#2
Description: (§1) Epidemic methicillin resistant S. aureus (MRSA) strain sequenced at the Sanger Centre (MRSA252, NRS71) was obtained from NARSA (Network on Antimicrobial Resistance in S. aureus). Methicillin sensitive S. aureus (ATCC 29213 and 25923), methicillin resistant S. aureus (ATCC BAA-1762), and Salmonella typhimurium (ATCC BAA-185) were obtained from ATCC, The Global Bioresource Center. Acinetobacter baumannii (ATCC 19606 and ATCC 17978), Klebsiella pneumonia (C238), vancomycin resistant Enterococci #2 (2010A) (VRE#2), MRSA (USA400, MW2) and Pseudomonas aeruginosa (PA0-1) were obtained from the laboratory of Dr B. B. Finlay at the University of British Columbia (Vancouver, Canada).
(§2) The antimicrobial activities of PK inhibitor candidates were determined using the 96-well microtiter standard 2-fold serial broth microdilution method as described by CLSI (formerly NCCLS) with the various gram-positive and gram-negative bacteria species mentioned above. Bacteria from a single colony were grown, overnight in either BHI Broth (VRE), mueller hinton broth (S. aureus 29213; MRSA USA400, A. baumannii 19606, MRSA BAA-1762) or L-broth (P. aeruginosa, S. typhimurium, K. pneumonia and A. baumannii 17978). Each compound was prepared in DMSO with 2-fold serial dilutions to give a final concentration of, 0.031 to 64 μg/ml. 10 μl of the compound solution was then added, in duplicate, to either, 190 μl of cation adjusted mueller hinton broth (CAMHB) or 190 μl CAMHB containing ˜2.5×10^5 CFU/ml of bacteria (final compound concentration 0.031 to 64 μg/ml). Culture plates were incubated for 18-24 h at 37° C., and optical density at 600 nm (OD600) was measured using a Benchmark Plus™ microplate spectrophotometer (Bio-Rad™). The absorbance control values for the series containing CAMHB and inhibitor were subtracted as background from the corresponding infected wells. Minimal inhibitory concentration (MIC) was defined as the lowest concentration of test compound leading to complete inhibition of cell growth in relation to compound-free control wells as determined by optical density. Vancomycin, methicillin and ciprofloxicin were used as reference compounds. All assays were run in triplicate or duplicate. Experiments were replicated at least twice to verify reproducibility using the above conditions.

MRSA (ATCC BAA-1762) = assay: In vitro susceptibility, broth microdilution (MIC); format: cell-based, methicillin resistant S. aureus; details: Staphylococcus aureus; MRSA ATCC BAA-1762; read-out: Antimicrobial activity (MIC) MRSA ATCC BAA1762
Description: as §1, §2

[1] = system: A. baumannii (ATCC 19606); assay: In vitro susceptibility, broth microdilution (MIC); format: cell-based; details: Acinetobacter baumannii, ATCC19606; A. baumannii ATCC 19606 (values without asterisk); read-out: Antimicrobial activity (MIC) A. baumannii
Description: as §1, §2

| SMILES | pIC50 (MRSA Pyk) | MIC (S. aureus (ATCC29213)) | MIC (VRE#2 (2010A)) | MIC (MRSA (ATCC BAA-1762)) | MIC [1] |
| --- | --- | --- | --- | --- | --- |
| N.O=C(O)CON=C(c1c(-c2cc3cc(Cl)ccc3[nH]2)[nH]c2cc(Br)ccc12)C(F)(F)F (racemic) [Compound 219, Ammonium 2-(((1-(6-bromo-5′-chloro-1H,1′H-[2,2′-biindol]-3-yl)-2,2,2-trifluoroethylidene)amino)oxy)acetate] | > 7.00 | 8 mg/L | 4 mg/L | 8 mg/L | > 64 mg/L |
| CN(C)CCON=C(c1c(-c2cc3cc(Cl)ccc3[nH]2)[nH]c2cc(Br)ccc12)C(F)(F)F (racemic) [Compound 220, 1-(6-Bromo-5′-chloro-1H,1′H-[2,2′-biindol]-3-yl)-2,2,2-trifluoroethan-1-one O-(2-(dimethylamino)ethyl)oxime] | > 7.00 | 2 mg/L (≈ 3.79 µM) | 2 mg/L (≈ 3.79 µM) | 2 mg/L (≈ 3.79 µM) | > 64 mg/L |
| COC(=O)C[N+](C)(C)CCON=C(c1c(-c2cc3cc(Cl)ccc3[nH]2)[nH]c2cc(Br)ccc12)C(F)(F)F (racemic) [Compound 222, N-(2-(((1-(6-Bromo-5′-chloro-1H,1′H-[2,2′-biindol]-3-yl)-2,2,2-trifluoroethylidene)amino)oxy)ethyl)-2-methoxy-N,N-dimethyl-2-oxoethan-1-aminium Bromide] | > 7.00 | 2 mg/L | 4 mg/L | 2 mg/L | 32 mg/L |
| CN1CCCN(CCCCNC(=O)c2c(-c3cc4cc(Cl)ccc4[nH]3)[nH]c3cc(Br)ccc23)CC1 [Compound 117, 6-Bromo-5′-chloro-N-(4-(4-methyl-1,4-diazepan-1-yl)butyl)-1H,1′H-[2,2′-biindole]-3-carboxamide] | > 7.00 | 8 mg/L (≈ 14.4 µM) | 8 mg/L (≈ 14.4 µM) | 8 mg/L (≈ 14.4 µM) | 32 mg/L (≈ 57.5 µM) |
| CN1CCCN(CCCNC(=O)c2c(-c3cc4cc(Cl)ccc4[nH]3)[nH]c3cc(Br)ccc23)CC1 [Compound 118, 6-Bromo-5′-chloro-N-(3-(4-methyl-1,4-diazepan-1-yl)propyl)-1H,1′H-[2,2′-biindole]-3-carboxamide] | > 7.00 | 16 mg/L (≈ 29.5 µM) | 8 mg/L (≈ 14.7 µM) | 16 mg/L (≈ 29.5 µM) | 32 mg/L (≈ 58.9 µM) |
| CN1CCCN(CCNC(=O)c2c(-c3cc4cc(Cl)ccc4[nH]3)[nH]c3cc(Br)ccc23)CC1 [Compound 119, 6-Bromo-5′-chloro-N-(2-(4-methyl-1,4-diazepan-1-yl)ethyl)-1H,1′H-[2,2′-biindole]-3-carboxamide] | > 7.00 | 16 mg/L (≈ 30.3 µM) | 8 mg/L (≈ 15.1 µM) | 16 mg/L (≈ 30.3 µM) | 64 mg/L (≈ 121 µM) |
| COCCN1CCC(NCCNC(=O)c2c(-c3cc4cc(Cl)ccc4[nH]3)[nH]c3cc(Br)ccc23)CC1 [Compound 124, 6-Bromo-5′-chloro-N-(2-((1-(2-methoxyethyl)piperidin-4-yl)amino)ethyl)-1H,1′H-[2,2′-biindole]-3-carboxamide] | > 7.00 | 8 mg/L (≈ 14 µM) | 8 mg/L (≈ 14 µM) | 8 mg/L (≈ 14 µM) | 16 mg/L (≈ 27.9 µM) |
| CN(C)CCNCCNC(=O)c1c(-c2cc3cc(Cl)ccc3[nH]2)[nH]c2cc(Br)ccc12 [Compound 126, 6-Bromo-5′-chloro-N-(2-((2-(dimethylamino)ethyl)amino)ethyl)-1H,1′H-[2,2′-biindole]-3-carboxamide] | > 7.00 | 16 mg/L (≈ 31.8 µM) | 8 mg/L (≈ 15.9 µM) | 16 mg/L (≈ 31.8 µM) | 32 mg/L (≈ 63.6 µM) |
| NC(=O)N1CCCN(CCNC(=O)c2c(-c3cc4cc(Cl)ccc4[nH]3)[nH]c3cc(Br)ccc23)CC1 [Compound 128, 6-bromo-N-(2-(4-carbamoyl-1,4-diazepan-1-yl)ethyl)-5′-chloro-1H,1′H-2,2′-biindole-3-carboxamide] |  | > 64 mg/L | > 64 mg/L |  | > 64 mg/L |
| COCCN1CCCN(CCNC(=O)c2c(-c3cc4cc(Cl)ccc4[nH]3)[nH]c3cc(Br)ccc23)CC1 [Compound 130, 6-bromo-5′-chloro-N-(2-(4-(2-methoxyethyl)-1,4-diazepan-1-yl)ethyl)-1H,1′H-2,2′-biindole-3-carboxamide] | > 7.00 | 16 mg/L (≈ 27.9 µM) | 16 mg/L (≈ 27.9 µM) | 16 mg/L (≈ 27.9 µM) | > 64 mg/L |
| CNCCNC(=O)c1c(-c2cc3cc(Cl)ccc3[nH]2)[nH]c2cc(Br)ccc12 [Compound 136, 6-Bromo-5′-chloro-N-(2-(methylamino)ethyl)-1H,1′H-[2,2′-biindole]-3-carboxamide] | > 7.00 | 8 mg/L (≈ 17.9 µM) | 8 mg/L (≈ 17.9 µM) | 8 mg/L (≈ 17.9 µM) | 16 mg/L (≈ 35.9 µM) |
| O=C(Nc1nc2cc(Br)ccc2s1)NC1CCCCC1 [Compound 159, 1-(5-bromobenzo[d]thiazol-2-yl)-3-cyclohexylurea] |  | 2 mg/L (≈ 5.65 µM) |  | 1 mg/L (≈ 2.82 µM) | > 64 mg/L |
| Nc1ccc(NC(=O)Nc2nc3cc(Br)ccc3s2)cc1 [Compound 160, 1-(4-aminophenyl)-3-(5-bromobenzo[d]thiazol-2-yl)urea] |  | 4 mg/L (≈ 11 µM) | 8 mg/L (≈ 22 µM) | 4 mg/L (≈ 11 µM) | > 64 mg/L |
| CN(C)CC(=O)Nc1ccc(NC(=O)Nc2nc3cc(Br)ccc3s2)cc1 [Compound 161, N-(4-(3-(5-bromobenzo[d]thiazol-2-yl)ureido)phenyl)-2-(dimethylamino)acetamide] |  | 16 mg/L (≈ 35.7 µM) | 16 mg/L (≈ 35.7 µM) | 8 mg/L (≈ 17.8 µM) | > 64 mg/L |
| O=C(Nc1ccc(Cl)cc1)Nc1nc2cc(F)ccc2s1 [Compound 166, 1-(4-chlorophenyl)-3-(5-fluorobenzo[d]thiazol-2-yl)urea] |  | 1 mg/L (≈ 3.11 µM) | 0.5 mg/L (≈ 1.55 µM) | 0.5 mg/L (≈ 1.55 µM) | > 64 mg/L |
| O=C(Nc1ccc(Cl)cc1)Nc1nc2cc(Oc3ccccc3)ccc2s1 [Compound 168, 1-(4-chlorophenyl)-3-(5-phenoxybenzo[d]thiazol-2-yl)urea] |  | 1 mg/L (≈ 2.53 µM) | 16 mg/L (≈ 40.4 µM) | 1 mg/L (≈ 2.53 µM) | > 64 mg/L |
| O=C(Nc1ccc(Cl)cc1)Nc1nc2cc(C(F)(F)F)ccc2s1 [Compound 169, 1-(4-chlorophenyl)-3-(5-(trifluoromethyl)benzo[d]thiazol-2-yl)urea] |  | 1 mg/L (≈ 2.69 µM) | 2 mg/L (≈ 5.38 µM) | 0.5 mg/L (≈ 1.34 µM) | > 64 mg/L |
| O=C(Nc1ccc(Cl)cc1)Nc1nc2cc(Cl)ccc2s1 [Compound 172, 1-(5-chlorobenzo[d]thiazol-2-yl)-3-(4-chlorophenyl)urea] |  | 0.5 mg/L (≈ 1.48 µM) | 1 mg/L (≈ 2.96 µM) | 0.5 mg/L (≈ 1.48 µM) | > 64 mg/L |
| CC(C)(C)NC(=O)Nc1nc2cc(Br)ccc2s1 [Compound 173, 1-(5-bromobenzo[d]thiazol-2-yl)-3-(tert-butyl)urea] |  | 16 mg/L (≈ 48.7 µM) | 32 mg/L (≈ 97.5 µM) | 16 mg/L (≈ 48.7 µM) | > 64 mg/L |
| O=C(Nc1nc2cc(Br)ccc2s1)NC1CCCCCC1 [Compound 174, 1-(5-bromobenzo[d]thiazol-2-yl)-3-cycloheptylurea] |  | 1 mg/L (≈ 2.72 µM) | 1 mg/L (≈ 2.72 µM) | 1 mg/L (≈ 2.72 µM) | > 64 mg/L |
| CCNC(=O)Nc1nc2cc(Br)ccc2s1 [Compound 176, 1-(5-bromobenzo[d]thiazol-2-yl)-3-ethylurea] |  | 8 mg/L (≈ 26.7 µM) | 16 mg/L (≈ 53.3 µM) | 8 mg/L (≈ 26.7 µM) | > 64 mg/L |
| CC(C)(C)NCCNC(=O)COc1cc2[nH]c(-c3cc4ccc(Br)cc4[nH]3)cc2cc1Cl [Compound 193, 2-((6′-Bromo-5-chloro-1H,1′H-[2,2′-biindol]-6-yl)oxy)-N-(2-(tert-butylamino)ethyl)acetamide] | > 7.00 | > 64 mg/L |  |  | > 64 mg/L |
